This assay addresses T1, amyloid β-peptide 42 (Aβ42) (Homo sapiens, UniProt P05067).
T1 construct: gene APP; synthetic human Aβ42
The assay is described as follows: Thioflavin T fluorescence aggregation assay with synthetic Aβ[…], positive control. The class given is biochemical.

T1 sequence (P05067 672-713 limits assumed): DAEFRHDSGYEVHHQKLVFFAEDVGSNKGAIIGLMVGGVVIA

For `COc1cc(/C=C/C(=O)CC(=O)/C=C/c2ccc(O)c(OC)c2)ccc1O` [curcumin], the “Thioflavin T fluorescence aggregation assay with synthetic Aβ42, positive contro” value was “which were comparable to the positive control curcumin”.
